Source: US5446056A, “Isoxazoline compounds useful as fibrinogen receptor antagonists” (The Du Pont Merck Pharmaceutical Company, priority 1994, dated 1995)

Tested on: human platelet rich plasma
Assay: Platelet aggregation assay (platelet rich plasma, PRP)
Format: cell-based
Details: concentration which inhibits platelet aggregation by 50% relative to control, ester prodrugs preincubated with porcine liver esterase, ADP-induced
Procedure: Platelet Aggregation Assay: Venous blood was obtained from the arm of a healthy human donor who was drug-free and aspirin-free for at least two weeks prior to blood collection. Blood was collected into 10 mL citrated Vacutainer tubes. The blood was centrifuged for 15 minutes at 150×g at room temperature, and platelet-rich plasma (PRP) was removed. The remaining blood was centrifuged for 15 minutes at 1500×g at room temperature, and platelet-poor plasma (PPP) was removed. Samples were assayed on a aggregometer (PAP-4 Platelet Aggregation Profiler), using PPP as the blank (100% transmittance). 200 μL of PRP was added to each micro test tube, and transmittance was set to 0%. 20 μL of various agonists (ADP, collagen, arachidonate, epinephrine, thrombin) were added to each tube, and the aggregation profiles were plotted (% transmittance versus time). The results are expressed as % inhibition of agonist-induced platelet aggregation. […] Percent inhibition is calculated using percent aggregation in the presence of the test compound divided by percent aggregation of control, times 100. […]
Platelet Aggregation Assay; Venous blood was obtained from the arm of a healthy human donor who was drug-free and aspirin-free for at least two weeks prior to blood collection. […] The results are expressed as % inhibition of agonist-induced platelet aggregation. […]

SMILES: CCNC(=N)c1ccc(C2=NOC(CC(=O)NCCC(=O)O)C2)cc1 (racemic) [Example 23, 5(R,S)-3-[3-(4-N-ethylamidinophenyl)isoxazolin-5-ylacetyl]aminopropanoic acid]
- IC50: < 10 µM
